According to US20250144067A1, “PERSONALIZED STARVATION THERAPY FOR CANCER” (Faeth Therapeutics, Inc., priority 2021, published 2025):
Counter-ions that a name gives are not always drawn. Like-named read-outs stand apart in the source and are kept apart here.

Tests used:
[1] = system: NCI-H292 lung cancer cells; experiment: FDA drug screening, complete media vs cholesterol-free media with simvastatin (TABLE 2); assay type: cell-based, human
[2] = system: NCI-H292 lung cancer cells; experiment: FDA drug screening, complete media vs cholesterol-free media without statin (TABLE 1); assay type: cell-based, human
[3] = complete media minus cholesterol-free media + simvastatin, >0 enhanced anti-cancer activity, about 0 neutral, <0 antagonist
[4] = NCI-H292 cells, cholesterol-free media without statin
[5] = complete vs cholesterol-free media, greater than 0 enhanced anti-cancer activity, about 0 neutral, below 0 antagonists
[6] = NCI-H292 cells, cholesterol-free media with simvastatin 0.04 μM, FDA drug library screen (TABLE 2)
[7] = NCI-H292 cells, complete media, FDA drug library screen (TABLE 2)
[8] = complete media minus cholesterol-free media + simvastatin (0.04 μM), >0 enhanced anti-cancer activity, about 0 neutral, <0 antagonist
[9] = Complete minus Cholesterol-free, greater than 0 enhanced anti-cancer activity, about 0 neutral, below 0 antagonist
[10] = NCI-H292 cells, FDA drug library screen, cholesterol-free media without statin
[11] = NCI-H292 cells, FDA drug library screen, complete media
[12] = NCI-H292 cells, FDA library drug in cholesterol-free media with simvastatin 0.04 μM
[13] = NCI-H292 cells, FDA library drug in complete media
[14] = complete media vs cholesterol-free media + simvastatin (0.04 μM), >0 enhanced anti-cancer activity, about 0 neutral, <0 antagonist
[15] = Complete minus Cholesterol-free, >0 enhanced anti-cancer activity, about 0 neutral, <0 antagonist
[16] = Complete minus Cholesterol-free, greater than 0 enhanced anti-cancer activity, about 0 neutral, below 0 antagonists
[17] = NCI-H292 cells in cholesterol-free media without statin
[18] = NCI-H292 cells in complete media
[19] = NCI-H292 cells, FDA drug library screen, cholesterol-free media with simvastatin 0.04 μM
[20] = NCI-H292 cells, complete media, FDA drug library screen
[21] = complete vs cholesterol-free media, >0 enhanced anti-cancer activity, about 0 neutral, <0 antagonist

With Diethylcarbamazine (citrate) the “Cholesterol-free media + simvastatin (0.04 μM)” value ([1]; NCI-H292 cells, cholesterol-free media with simvastatin 0.04 μM, cell growth value in FDA drug screen) was 0.703, the “Complete Media” value ([1]; NCI-H292 cells, complete media, cell growth value in FDA drug screen) was 0.7247 and the Difference [1, 3] was 0.02. It also gave a Cholesterol-free [2, 4] of 1.324, a Complete ([2]; NCI-H292 cells, complete media) of 0.9451 and a Difference [2, 5] of −0.38.

In the case of `CC(=O)OC(C)C[N+](C)(C)C.[Cl-]` (stereo not shown) [Methacholine (chloride)], the “Cholesterol-free media + simvastatin (0.04 μM)” value [1, 6] is reported as 1.245, the “Complete Media” value [1, 7] is reported as 1.195 and the Difference [1, 8] is reported as −0.05. It also gave a Difference [2, 9] of −0.15, a Cholesterol-free [2, 10] of 1.05 and a Complete [2, 11] of 0.8971.

With `Cc1ccc(O)c([C@H](CCN(C(C)C)C(C)C)c2ccccc2)c1` [Tolterodine] the “Cholesterol-free media + simvastatin (0.04 μM)” value [1] was 1.169, the “Complete Media” value [1] was 0.8561 and the Difference [1] was −0.31. It also gave a Cholesterol-free [2] of 0.9758, a Complete [2] of 1.051 and a Difference [2] of 0.08.

In the case of `CCCCc1nc(Cl)c(CO)n1Cc1ccc(-c2ccccc2-c2nn[nH]n2)cc1` [Losartan], the “Cholesterol-free media + simvastatin (0.04 μM)” value [1, 12] is reported as 1.37, the “Complete Media” value [1, 13] is reported as 0.8741 and the Difference [1, 14] is reported as −0.50. It also gave a Difference [2, 15] of −0.28, a Cholesterol-free [2, 4] of 1.549 and a Complete ([2]; NCI-H292 cells, complete media) of 1.271.

In the case of `COCCCOc1ccnc(C[S+]([O-])c2nc3ccccc3[n-]2)c1C.[Na+]` (stereo not shown) [Rabeprazole (sodium)], the “Cholesterol-free media + simvastatin (0.04 μM)” value [1, 12] is reported as 1.461, the “Complete Media” value [1, 13] is reported as 0.9065 and the Difference [1, 14] is reported as −0.55. It also gave a Difference [2, 16] of −0.70, a Cholesterol-free [2, 17] of 1.634 and a Complete [2, 18] of 0.9326.

Tolterodine (tartrate) was tested, and the “Cholesterol-free media + simvastatin (0.04 μM)” value [1] was 1.183, the “Complete Media” value [1] was 1.127 and the Difference [1] was −0.06. The Cholesterol-free [2] was 1.873, the Complete [2] was 0.9529 and the Difference [2] was −0.92.

With `CC#CCn1c(N2CCC[C@@H](N)C2)nc2c1c(=O)n(Cc1nc(C)c3ccccc3n1)c(=O)n2C` [Linagliptin] the “Cholesterol-free media + simvastatin (0.04 μM)” value [1, 6] was 1.095, the “Complete Media” value [1, 7] was 1.067 and the Difference [1, 8] was −0.03. For the same compound, the Difference [2, 15] was −0.23, the Cholesterol-free [2, 4] was 1.072 and the Complete ([2]; NCI-H292 cells, complete media) was 0.8404.

In the case of `COC(=O)C1=C(C)NC(C)=C(C(=O)OC(C)C)C1c1cccc2nonc12` (stereo not shown) [Isradipine], the “Cholesterol-free media + simvastatin (0.04 μM)” value [1, 19] is reported as 0.7485, the “Complete Media” value [1, 11] is reported as 1.061 and the Difference [1, 3] is reported as 0.31. For the same compound, the Cholesterol-free [2, 4] was 1.16, the Complete ([2]; NCI-H292 cells, complete media) was 0.8034 and the Difference [2, 5] was −0.36.

For `C=C[C@H]1C[N@@]2CC[C@H]1C[C@@H]2[C@@H](O)c1ccnc2ccc(OC)cc12` [Quinidine], the “Complete Media” value [1, 13] was 0.8492, the Difference [1, 14] was −0.29 and the Complete [2, 20] was 1.951. The Difference [2, 21] was 0.93.

In the case of `N#CC[C@H](C1CCCC1)n1cc(-c2ncnc3[nH]ccc23)cn1` [Ruxolitinib (S enantiomer)], the “Cholesterol-free media + simvastatin (0.04 μM)” value ([1]; NCI-H292 cells, drug in cholesterol-free media with simvastatin 0.04 μM) is reported as 0.9634, the “Complete Media” value ([1]; NCI-H292 cells, drug in complete media) is reported as 0.7007 and the Difference [1, 14] is reported as −0.26. It also gave a Difference [2, 16] of −0.48, a Cholesterol-free [2, 17] of 1.03 and a Complete [2, 18] of 0.5541.

For Doxazosin (mesylate), the “Cholesterol-free media + simvastatin (0.04 μM)” value [1, 12] was 1.325, the “Complete Media” value [1, 13] was 0.9839 and the Difference [1, 14] was −0.34. It also gave a Difference [2, 16] of −0.61, a Cholesterol-free [2, 17] of 1.69 and a Complete [2, 18] of 1.083.

In the case of `COc1cc(C(=O)NCc2ccc(OCCN(C)C)cc2)cc(OC)c1OC` [Trimethobenzamide hydrochloride], the “Cholesterol-free media + simvastatin (0.04 μM)” value [1, 12] is reported as 1.241, the “Complete Media” value [1, 13] is reported as 0.874 and the Difference [1, 14] is reported as −0.37. For the same compound, the Cholesterol-free ([2]; NCI-H292 cells, cholesterol-free media without statin, FDA drug library screen) was 0.8254, the Complete [2, 20] was 0.9013 and the Difference [2, 21] was 0.08.

In the case of `O=C(O[C@@H]1C[C@@H]2C[C@H]3C[C@H](C1)N2CC3=O)c1c[nH]c2ccccc12` [Dolasetron (Mesylate hydrate)], the “Cholesterol-free media + simvastatin (0.04 μM)” value [1, 19] is reported as 1.31, the “Complete Media” value [1, 11] is reported as 1.817 and the Difference [1, 3] is reported as 0.51. The Cholesterol-free [2, 4] was 1.287, the Complete ([2]; NCI-H292 cells, complete media) was 0.8444 and the Difference [2, 5] was −0.44.

For `O=C(O)C[C@H](O)C[C@H](O)/C=C/c1c(C2CC2)nc2ccccc2c1-c1ccc(F)cc1` [Pitavastatin (Calcium)], the “Cholesterol-free media + simvastatin (0.04 μM)” value [1, 6] was 0.4883, the “Complete Media” value [1, 7] was 0.4437 and the Difference [1, 8] was −0.04. The Difference [2, 9] was −0.07, the Cholesterol-free [2, 10] was 0.4408 and the Complete [2, 11] was 0.3693.
